Laboratory results from paper PMC11125126, “Synthesis, Characterisation, and In Vitro Evaluation of Biocompatibility, Antibacterial and Antitumor Activity of Imidazolium Ionic Liquids” (Pharmaceutics, 2024).
Read-outs that look alike come from different tables or passages of the source.

Key:
Escherichia coli = assay: MIC/MBC by broth dilution, pure ILs; assay type: cell-based; conditions: 24 h
Text: (§1) Within the Di3A (Dipartimento di Agricoltura, Alimentazione e Ambiente, University of Catania, Italy) microbial collection, two Gram-negative strains (Escherichia coli and Pseudomonas fluorescens) and one Gram-positive strain (Listeria monocytogenes) were studied in order to define the potential efficacy of ionic liquids in relation to the different structure of the bacterial cell wall.
(§2) For the pure ILs, the minimal inhibitory concentration (MIC) and minimal bactericidal concentration (MBC) were determined in Nutrient Broth (NB, Oxoid, Basingstoke, UK) medium by broth dilution method, according to the Clinical and Laboratory Standards Institute (CLSI).
(§3) All the bacterial strains were individually grown for 24 h at 35 or 27 °C for P. fluorescens, with shaking. After the incubation period, the cells were collected by centrifugation and re-suspended in sterile NB to obtain a stock culture of 10^9 CFU/mL.
(§4) Tubes containing 5 mL of NB with decreasing concentrations of ILs (1000, 500, 250, 125, 50, 25, 12.5, 5 and 0 µg/mL) were inoculated with each bacterial stock culture at a final concentration of 10^6 CFU/mL.
(§5) Tubes were incubated at 35 or 27 °C in an orbital shaker and evaluated for the viable count of E. coli, P. fluorescens, and L. monocytogenes after 24 h by spread-plating 100 µL of each suspension on Nutrient Agar (NA, Oxoid, Basingstoke, UK) incubated for 24–48 h at 35 or 27 °C.
(§6) In this study, MIC and MBC are expressed in both µg/mL and µM to make the comparison with the literature data easy. Each experiment was performed in triplicate.

HDF cells = assay: Direct cytotoxicity test of IL powders, Alamar blue assay; assay type: cell-based, human; conditions: 24 h of incubation
Method: (§7) Cytotoxicity studies on IL powders were carried out using human dermal fibroblast (HDF) cells (Sigma-Aldrich) and a human breast cancer cell line (MCF7). In addition, ILs loaded in PVC polymer substrates were tested for their cytocompatibility and adhesion properties on the HDF. HDF cells were cultured in 75 cm^2 cell culture flask in Dulbecco’s Modified Eagle’s Medium (DMEM) supplemented with 20% Foetal Bovine Serum (FBS), 1% non-essential amino acid (NEAA), antibiotic solution (streptomycin 100 µg/mL and penicillin 100 U/mL, Sigma Aldrich) and 2 mM L-glutamine. MCF7 cells were grown in DMEM with 10% FBS and the same antibiotics as mentioned above. The cells were maintained in a culture at 37 °C, with 5% CO2 and 95% humidity to achieve a confluent layer. Control cells were cultured in a complete medium without any compounds in tissue culture plates. Before biological testing, the samples were sterilised using a UV light for 2 h.
(§8) A direct cytotoxicity test was used to assess the in vitro cytotoxicity of IL powders. IL powders with different alkyl chains were dissolved in DMEM media to obtain solutions at various concentrations (0.5–1–5 and 10 µg/mL) to determine the best formulation.
(§9) After 24 h of incubation of IL solutions (200 µL) with seeded cells under specific environmental conditions (T = 37 °C, HR = 95%, CO2 = 5%), cell viability was tested using the Alamar blue assay (AbD Serotec, Milan, Italy) following the manufacturer’s instructions.
(§10) In summary, each well received a 200 µL aliquot of Alamar Blue^TM diluted 1:10 in phenol red-free medium and was incubated for 4 h at 37 °C, 5% CO2. Following this, 100 µL of the solution was transferred to a 96-well plate for colorimetric analysis. Wells with no cells were included to account for any background interference from the redox indicator. Optical density was immediately measured using a spectrophotometer (Victor X3, Perkin Elmer, Waltham, MA, USA) at 560 and 595 nm wavelengths. The results were presented as a percentage of cell viability compared to that of the control (cells grown on tissue culture plates).
(§11) Here, the antitumor activity and cytotoxicity of the synthetised imidazolium-based ionic liquids have been determined for breast cancer cells (MCF-7) and healthy human fibroblast (HDF) cells. […] Table 5 reports the IC50 values in µg/mL and µM to make their comparison with the literature data easy.

MCF7 cancer cells = assay: as above; assay type: cell-based, human; conditions: 24 h of incubation
Method: as §7, §8, §9, §10, §11

[1] = Thermogravimetric analysis (TGA), thermal stability; assay type: physicochemical; conditions: neat ILs; single-step degradation; 10 °C/min, nitrogen
Method: Thermal stability and kinetic parameters of the synthesised ILs were investigated using the TA instruments Q500 thermogravimetric analyser (Milan, Italy). A certain amount of sample (4–5 mg) was placed in a platinum pan and heated at 10 °C min^−1 from 40 to 600 °C under a flow of nitrogen (60 mL/min).
Thermogravimetric analyses were performed to evaluate the thermal stability of ILs and PVC/IL blends. Before testing, the samples were subjected to drying cycles in a vacuum stove for 24 h at 50–60 °C, according to the thermal features of ILs, mainly considering their melting points. The ILs C9mimBF4, C10mimBF4, C9mimDMSIP, and C10mimDMSIP, which are liquid at RT, were left to dry at 30 °C for 4–5 h. […] Considering this, the 40–600 °C degradation temperature range was adopted for the subsequent TGA analyses. […] Furthermore, platinum pans and nitrogen as purge gas were used, and the temperature at which 5% weight loss occurred was defined as Tonset, aiming to avoid the decomposition differences due to pan and gas types, as well as the uncertainty from the manual determination of the Tonset tangent point, respectively. Many features can influence the thermal stability of ILs, mainly the coordinating nature of the anion. Indeed, the highly coordinating halide anions (Cl, Br) display a thermal stability lower than that of poor coordinating anions (PF6). The type of cation core influences the thermal stability of ILs, with a decreasing temperature resistance in the following order: pyrrolidinium, imidazolium, pyridinium, and non-cyclic tetra-alkyl ammonium. The increasing alkyl chain length of the imidazolium cation and branching of the alkyl substituents induce a reduction in thermal stability. Furthermore, a decrease in thermal stability is determined by the presence of alkoxylated side chains in methylimidazolium, piperidinium, and pyrrolidinium cations.
As the industrial production of end products usually involves processing methodologies during which undesirable degradation processes could affect materials’ performance, the thermal stability of neat PVC and PVC/IL film blends was analysed. As detailed for TGA analyses of pure ILs, the stability of the PVC/IL blends was determined at heating runs of 10 °C/min from 40 to 600 °C under a nitrogen atmosphere using a platinum pan. These things considered, the temperature at 5% weight loss was considered as Tonset.

Listeria monocytogenes = assay: MIC/MBC by broth dilution, pure ILs; assay type: cell-based; conditions: 24 h
Text: as §1, §2, §3, §4, §5, §6

Pseudomonas fluorescens = assay: MIC/MBC by broth dilution, pure ILs; assay type: cell-based; conditions: 24 h
Text: as §1, §2
All the bacterial strains were individually grown for 24 h at 35 or 27 °C for P. fluorescens, with shaking. After the incubation period, the cells were collected by centrifugation and re-suspended in sterile NB to obtain a stock culture of 10^9 CFU/mL. […]
as §5, §6

[2] = NI = no inhibition at IL maximum concentration used (1000 µM), read-out: MIC
[3] = NI = no inhibition at IL maximum concentration used (1000 µM), read-out: MBC

SMILES | MIC (Escherichia coli; 10^6 CFU/mL) [µg/mL] | Td, maximum degradation temperature [1] [°C] | MIC (Listeria monocytogenes; 10^6 CFU/mL) [µg/mL] | MIC (Escherichia coli; [2]) [µM] | IC50 (HDF cells; n = 3) [µM] | IC50 HDF (HDF cells; n = 3, mean ± SD) [µg/mL] | IC50 MCF7 (MCF7 cancer cells; n = 3) [µg/mL] | IC50 (MCF7 cancer cells; n = 3, mean ± SD) [µM] | MBC (Escherichia coli; [3]) [µM] | MBC (Listeria monocytogenes; [3]) [µM] | MIC (Listeria monocytogenes; [2]) [µM] | MBC (Pseudomonas fluorescens; [3]) [µM] | MIC (Pseudomonas fluorescens; [2]) [µM] | MIC (Escherichia coli; 10^6 CFU/mL, read-out: MIC) [µg/mL] | MIC (Listeria monocytogenes; 10^6 CFU/mL, read-out: MIC) [µg/mL] | IC50 (HDF cells; Homo sapiens, n = 3) [µM] | IC50 (HDF cells; Homo sapiens, n = 3, mean ± SD) [µg/mL] | IC50 (MCF7 cancer cells; Homo sapiens, n = 3) [µg/mL] | IC50 (MCF7 cancer cells; Homo sapiens, n = 3, mean ± SD) [µM] | MBC (Escherichia coli; 10^6 CFU/mL, read-out: MBC) [µg/mL] | also measured
CCCCCCCCC[n+]1ccn(C)c1.COC(=O)c1cc(C(=O)OC)cc(S(=O)(=O)[O-])c1 [C9mimDMSIP] | 482.59 | 389.7 |  | 1000 | 10.3 | 4.96 ± 0.05 | > 24.13 | > 50 |  |  |  |  |  |  |  |  |  |  |  |  | 
CCCCCCCCCCCCCCCCCCCC[n+]1ccn(C)c1.F[B-](F)(F)F [C20mimBF4] |  | 427.9 |  | > 1000 |  |  |  |  |  |  | > 1000 |  | > 1000 | > 450 | > 450 | 5.99 | 2.7 ± 0.19 | 3.47 | 7.71 |  | 
CCCCCCCCC[n+]1ccn(C)c1.F[B-](F)(F)F [C9mimBF4] |  |  |  | 1000 |  |  |  |  | 1000 | 500 | 500 |  | > 1000 | 296 | 148 | 17.4 | 5.14 ± 0.1 | > 14.8 | > 50 | 296 | MBC (Listeria monocytogenes; 10^6 CFU/mL, read-out: MBC): 148 µg/mL
CCCCCCCCCCCCn1cc[n+](C)c1.F[B-](F)(F)F [C12mimBF4, 1-dodecyl-3-methylimidazolium tetrafluoroborate] |  |  |  | 50 |  |  |  |  | 250 | 50 | 25 | 125 | 50 | 16.9 | 8.46 | 12.8 | 4.34 ± 0.01 | 2.05 | 6.06 | 84.6 | MBC (Listeria monocytogenes; 10^6 CFU/mL, read-out: MBC): 16.9 µg/mL; MBC (Pseudomonas fluorescens; 10^6 CFU/mL, read-out: MBC): 42.3 µg/mL; MIC (Pseudomonas fluorescens; 10^6 CFU/mL, read-out: MIC): 16.9 µg/mL

Further lines, with some results ahead:

MIC (Escherichia coli; 10^6 CFU/mL) [µg/mL] | Td, maximum degradation temperature [1] [°C] | MIC (Listeria monocytogenes; 10^6 CFU/mL) [µg/mL] | SMILES | MIC (Escherichia coli; [2]) [µM] | IC50 (HDF cells; n = 3) [µM] | IC50 HDF (HDF cells; n = 3, mean ± SD) [µg/mL] | IC50 MCF7 (MCF7 cancer cells; n = 3) [µg/mL] | IC50 (MCF7 cancer cells; n = 3, mean ± SD) [µM] | MBC (Escherichia coli; [3]) [µM] | MBC (Listeria monocytogenes; [3]) [µM] | MIC (Listeria monocytogenes; [2]) [µM] | MBC (Pseudomonas fluorescens; [3]) [µM] | MIC (Pseudomonas fluorescens; [2]) [µM] | MIC (Escherichia coli; 10^6 CFU/mL, read-out: MIC) [µg/mL] | MIC (Listeria monocytogenes; 10^6 CFU/mL, read-out: MIC) [µg/mL] | IC50 (HDF cells; Homo sapiens, n = 3) [µM] | IC50 (HDF cells; Homo sapiens, n = 3, mean ± SD) [µg/mL] | IC50 (MCF7 cancer cells; Homo sapiens, n = 3) [µg/mL] | IC50 (MCF7 cancer cells; Homo sapiens, n = 3, mean ± SD) [µM] | MBC (Escherichia coli; 10^6 CFU/mL, read-out: MBC) [µg/mL] | also measured
> 636.88 | 412.2 | > 636.88 | CCCCCCCCCCCCCCCCCCCCn1cc[n+](C)c1.COC(=O)c1cc(C(=O)OC)cc(S(=O)(=O)[O-])c1 [C20mimDMSIP, 1-eicosyl-3-methylimidazolium 1,3-dimethyl-5-sulfoisophthalate] |  | 8.01 | 5.10 ± 0.02 | 4.71 | 7.39 |  |  |  |  |  |  |  |  |  |  |  |  | 
26.24 |  | 13.12 | CCCCCCCCCCCCn1cc[n+](C)c1.COC(=O)c1cc(C(=O)OC)cc(S(=O)(=O)[O-])c1 [C12mimDMSIP, 1-dodecyl-3-methylimidazolium 1,3-dimethyl-5-sulfoisophthalate] | 50 | 10.6 | 5.56 ± 0.04 | 4.95 | 9.44 | 125 | 50 | 25 | 500 | 125 |  |  |  |  |  |  |  | MBC (Escherichia coli; 10^6 CFU/mL): 65.58 µg/mL; MBC (Listeria monocytogenes; 10^6 CFU/mL): 26.24 µg/mL; MBC (Pseudomonas fluorescens; 10^6 CFU/mL): 262.33 µg/mL; MIC (Pseudomonas fluorescens; 10^6 CFU/mL): 65.58 µg/mL
